This experiment has as its target Gastrin-releasing peptide receptor (Homo sapiens, UniProt P30550). Description: Displacement of [125I-Tyr4]BN form BB2 receptor in human PC3 cells. The format is cell-based, PC-3.

Molecules are shown by their SMILES.

Chain of Gastrin-releasing peptide receptor (P30550 whole entry): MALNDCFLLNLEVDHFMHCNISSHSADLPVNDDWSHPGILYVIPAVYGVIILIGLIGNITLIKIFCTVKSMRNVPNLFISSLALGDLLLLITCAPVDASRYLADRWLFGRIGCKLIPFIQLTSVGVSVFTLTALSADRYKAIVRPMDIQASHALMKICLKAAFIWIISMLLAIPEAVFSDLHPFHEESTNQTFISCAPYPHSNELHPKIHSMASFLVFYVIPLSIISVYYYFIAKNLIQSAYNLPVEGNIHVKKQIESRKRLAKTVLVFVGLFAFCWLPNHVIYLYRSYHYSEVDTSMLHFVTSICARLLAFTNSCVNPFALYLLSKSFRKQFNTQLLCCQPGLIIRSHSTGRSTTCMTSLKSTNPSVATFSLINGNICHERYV

In general, IC50 refers to the concentration that inhibits the measured activity by half. Consider `CSCC[C@H](NC(=O)[C@H](CC(C)C)NC(=O)[C@H](Cc1cnc[nH]1)NC(=O)CNC(=O)[C@@H](NC(=O)[C@H](C)NC(=O)[C@H](Cc1c[nH]c2ccccc12)NC(=O)[C@H](CCC(N)=O)NC(=O)CCCCCNC(=O)[C@H](CS)NC(=O)CNC(=O)CN)C(C)C)C(N)=O`, for which the IC50 came to 1.45 nM.
Then `CSCC[C@H](NC(=O)[C@H](CC(C)C)NC(=O)[C@H](Cc1cnc[nH]1)NC(=O)CNC(=O)[C@@H](NC(=O)[C@H](C)NC(=O)[C@H](Cc1c[nH]c2ccccc12)NC(=O)[C@H](CCC(N)=O)NC(=O)[C@H](CC(N)=O)NC(=O)CNC(=O)[C@H](CC(C)C)NC(=O)[C@H](CCCNC(=N)N)NC(=O)[C@H](CCC(N)=O)NC(=O)CCCCCNC(=O)[C@H](CS)NC(=O)CNC(=O)CN)C(C)C)C(N)=O`, with 0.59 nM.

The record behind these values is ChEMBL document CHEMBL1137776, “Structural assessment and biological evaluation of two N3S bombesin derivatives” (J Med Chem, 2009).
